Values quoted from earlier work as cited in US7314882B2, “Bicyclic heterocycles as cannabinoid receptor modulators” (Bristol-Myers Squibb Company, priority 2005, dated 2008).

Tested on: body weight
Settings: 16 week trial period

Cc1c(C(=O)NN2CCCCC2)nn(-c2ccc(Cl)cc2Cl)c1-c1ccc(Cl)cc1 [SR-141716]
body weight in human subjects: dose-dependently reduced body weight
